Read-outs that look alike come from different tables or passages of the source.
Tests used:
JNK3 = target: T1, JNK3 (Homo sapiens, UniProt P53779); test: KINOMEScan; assay type: binding; set-up: dose or concentration left out as unconfirmed
T1 construct: purchased DiscoverX KINOMEscan

EGFR = target: T2, EGFR (Homo sapiens, UniProt P00533); test: KINOMEScan; assay type: binding; set-up: dose or concentration left out as unconfirmed
T2 construct: purchased DiscoverX KINOMEscan

KIT V559D = KIT V559D (Homo sapiens, UniProt P10721, V559D); test: KIT auto-phosphorylation in KIT V559D overexpressed Colo320DM cells; assay type: cell-based; set-up: expressed in transfected cells; host or cells: Colo320DM (transient)
KIT V559D, sequence (P10721 546-976 V559D limits assumed): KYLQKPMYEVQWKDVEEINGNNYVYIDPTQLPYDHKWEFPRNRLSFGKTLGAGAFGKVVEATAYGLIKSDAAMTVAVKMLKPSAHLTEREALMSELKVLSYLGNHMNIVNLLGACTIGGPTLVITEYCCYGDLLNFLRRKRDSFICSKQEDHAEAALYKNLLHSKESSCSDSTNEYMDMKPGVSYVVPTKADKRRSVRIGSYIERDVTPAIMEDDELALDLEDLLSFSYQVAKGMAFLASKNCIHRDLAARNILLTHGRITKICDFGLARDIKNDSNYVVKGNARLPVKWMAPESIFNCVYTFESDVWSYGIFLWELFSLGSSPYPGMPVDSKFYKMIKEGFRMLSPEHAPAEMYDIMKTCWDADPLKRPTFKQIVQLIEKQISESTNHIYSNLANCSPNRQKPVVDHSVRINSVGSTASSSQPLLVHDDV
Description: In order to better define CHMFL-KIT-031’s inhibitory effect against KIT V559D mutant, we then tested it with purified KIT wt/V559D kinase protein by ADP-Glo assay (Figure 2A). […] We also transformed and overexpressed KIT V559D transiently into Colo320DM cells which express wt KIT kinase and tested CHMFL-KIT-031’s inhibitory effects for the auto-phosphorylation of KIT Y703, 719 and Y823 sites.
KIT-V559D kinase domain coding sequence was inserted into a pMSCV puro vector (Clontech) that was modified by inserting a 3×FLAG sequence at the 3’ end of the multicloning sites. The vector was transiently transfected into Colo320DM cells with TransIN™EL transfection reagent.

EGFR(G719S) = target: T3, EGFR(G719S) (Homo sapiens, UniProt P00533, G719S); test: KINOMEScan; assay type: binding; set-up: dose or concentration left out as unconfirmed
T3 construct: purchased DiscoverX KINOMEscan
T3 sequence (P00533 25-1210 G719S): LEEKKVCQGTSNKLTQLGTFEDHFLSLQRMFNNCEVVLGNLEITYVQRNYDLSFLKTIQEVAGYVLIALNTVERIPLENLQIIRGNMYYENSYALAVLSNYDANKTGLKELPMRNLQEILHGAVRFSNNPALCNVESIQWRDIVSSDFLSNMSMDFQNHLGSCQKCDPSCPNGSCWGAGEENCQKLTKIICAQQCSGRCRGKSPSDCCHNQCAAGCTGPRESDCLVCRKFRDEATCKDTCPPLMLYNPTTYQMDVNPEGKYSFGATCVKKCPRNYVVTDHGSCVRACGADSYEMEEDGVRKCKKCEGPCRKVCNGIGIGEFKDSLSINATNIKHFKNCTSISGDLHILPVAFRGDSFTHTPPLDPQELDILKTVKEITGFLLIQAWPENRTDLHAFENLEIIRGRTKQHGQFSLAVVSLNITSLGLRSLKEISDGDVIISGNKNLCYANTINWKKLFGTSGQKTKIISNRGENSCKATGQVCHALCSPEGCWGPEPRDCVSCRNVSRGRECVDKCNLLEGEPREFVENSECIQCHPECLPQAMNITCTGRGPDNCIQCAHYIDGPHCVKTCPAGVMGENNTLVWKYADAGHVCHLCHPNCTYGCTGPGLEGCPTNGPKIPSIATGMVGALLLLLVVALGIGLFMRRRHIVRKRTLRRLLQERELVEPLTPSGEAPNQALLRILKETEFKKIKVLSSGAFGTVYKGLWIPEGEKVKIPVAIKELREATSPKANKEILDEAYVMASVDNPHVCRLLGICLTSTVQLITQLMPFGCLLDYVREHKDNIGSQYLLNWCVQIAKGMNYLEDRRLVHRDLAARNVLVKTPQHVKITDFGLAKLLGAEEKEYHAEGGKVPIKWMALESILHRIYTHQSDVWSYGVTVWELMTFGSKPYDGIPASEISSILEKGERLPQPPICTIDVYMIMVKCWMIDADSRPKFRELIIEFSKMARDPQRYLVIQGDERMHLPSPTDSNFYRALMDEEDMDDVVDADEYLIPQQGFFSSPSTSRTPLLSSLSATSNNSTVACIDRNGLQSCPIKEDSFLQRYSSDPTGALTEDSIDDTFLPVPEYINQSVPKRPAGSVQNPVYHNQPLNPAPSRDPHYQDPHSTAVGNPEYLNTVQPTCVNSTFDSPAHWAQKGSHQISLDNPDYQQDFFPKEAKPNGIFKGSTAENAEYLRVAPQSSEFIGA

MET(Y1235D) = target: T4, MET(Y1235D) (Homo sapiens, UniProt P08581, Y1235D); test: KINOMEScan; assay type: binding; set-up: dose or concentration left out as unconfirmed
T4 construct: purchased DiscoverX KINOMEscan

p38-alpha = target: T5, p38-alpha (Homo sapiens, UniProt Q16539); test: KINOMEScan; assay type: binding; set-up: dose or concentration left out as unconfirmed
T5 construct: purchased DiscoverX KINOMEscan
T5 sequence (Q16539 whole entry): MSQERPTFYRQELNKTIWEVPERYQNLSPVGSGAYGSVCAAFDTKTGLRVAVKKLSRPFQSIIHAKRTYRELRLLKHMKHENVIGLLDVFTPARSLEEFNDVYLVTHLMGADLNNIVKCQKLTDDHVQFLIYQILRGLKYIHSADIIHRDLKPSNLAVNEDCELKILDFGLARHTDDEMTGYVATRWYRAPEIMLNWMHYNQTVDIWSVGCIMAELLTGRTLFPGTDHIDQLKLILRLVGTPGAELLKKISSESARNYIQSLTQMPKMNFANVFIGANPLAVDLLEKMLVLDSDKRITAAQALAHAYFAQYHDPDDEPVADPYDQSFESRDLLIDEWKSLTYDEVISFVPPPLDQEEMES

EGFR(G719C) = target: T6, EGFR(G719C) (Homo sapiens, UniProt P00533, G719C); test: KINOMEScan; assay type: binding; set-up: dose or concentration left out as unconfirmed
T6 construct: purchased DiscoverX KINOMEscan

CDK8 = target: T7, CDK8 (Homo sapiens, UniProt P49336); test: KINOMEScan; assay type: binding; set-up: dose or concentration left out as unconfirmed
T7 construct: purchased DiscoverX KINOMEscan

CAMK1B = target: T8, CAMK1B (Homo sapiens, UniProt Q6P2M8); test: KINOMEScan; assay type: binding; set-up: dose or concentration left out as unconfirmed
T8 construct: purchased DiscoverX KINOMEscan
T8 sequence (Q6P2M8 whole entry): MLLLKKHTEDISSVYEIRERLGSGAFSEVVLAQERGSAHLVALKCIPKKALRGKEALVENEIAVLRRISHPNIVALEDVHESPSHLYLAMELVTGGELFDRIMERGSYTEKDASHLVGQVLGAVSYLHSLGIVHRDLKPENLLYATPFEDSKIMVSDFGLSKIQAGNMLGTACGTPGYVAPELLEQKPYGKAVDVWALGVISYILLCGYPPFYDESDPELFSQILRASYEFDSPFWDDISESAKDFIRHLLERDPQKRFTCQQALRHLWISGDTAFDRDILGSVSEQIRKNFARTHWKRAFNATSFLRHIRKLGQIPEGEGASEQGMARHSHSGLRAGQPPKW

MET(M1250T) = target: T9, MET(M1250T) (Homo sapiens, UniProt P08581, M1250T); test: KINOMEScan; assay type: binding; set-up: dose or concentration left out as unconfirmed
T9 construct: purchased DiscoverX KINOMEscan

CHEK1 = target: T10, CHEK1 (Homo sapiens, UniProt O14757); test: KINOMEScan; assay type: binding; set-up: dose or concentration left out as unconfirmed
T10 construct: purchased DiscoverX KINOMEscan

BTK = target: T11, BTK (Homo sapiens, UniProt Q06187); test: KINOMEScan; assay type: binding; set-up: dose or concentration left out as unconfirmed
T11 construct: purchased DiscoverX KINOMEscan

EPHB2 = target: T12, EPHB2 (Homo sapiens, UniProt P29323); test: KINOMEScan; assay type: binding; set-up: dose or concentration left out as unconfirmed
T12 construct: purchased DiscoverX KINOMEscan

DCAMKL1 = target: T13, DCAMKL1 (Homo sapiens, UniProt O15075); test: KINOMEScan; assay type: binding; set-up: dose or concentration left out as unconfirmed
T13 construct: purchased DiscoverX KINOMEscan

[1] = target: T14, JAK2(JH1domain-catalytic) (Homo sapiens, UniProt O60674); test: KINOMEScan; assay type: binding; set-up: dose or concentration left out as unconfirmed
T14 construct: JAK2(JH1domain-catalytic); purchased DiscoverX KINOMEscan

[2] = tested on: AKT, S6, ERK, p70S6K and STAT3 phosphorylation; test: Signaling pathway study in BaF3-TEL-KIT-V559D cells; assay type: cell-based; conditions: KIT-V559D transformed stable BaF3 cells, Western blot
KIT V654A = KIT V654A (Homo sapiens, UniProt P10721, V654A); test: KIT auto-phosphorylation in transformed BaF3 cells; conditions: 2h
KIT V654A, sequence (P10721 546-976 V654A): as the sequence (P10721 546-976 V559D limits assumed) above, with D14V, V109A counted along it

SNARK = target: T15, SNARK (Homo sapiens, UniProt Q9H093); test: KINOMEScan; assay type: binding; set-up: dose or concentration left out as unconfirmed
T15 construct: purchased DiscoverX KINOMEscan
T15 sequence (Q9H093 whole entry): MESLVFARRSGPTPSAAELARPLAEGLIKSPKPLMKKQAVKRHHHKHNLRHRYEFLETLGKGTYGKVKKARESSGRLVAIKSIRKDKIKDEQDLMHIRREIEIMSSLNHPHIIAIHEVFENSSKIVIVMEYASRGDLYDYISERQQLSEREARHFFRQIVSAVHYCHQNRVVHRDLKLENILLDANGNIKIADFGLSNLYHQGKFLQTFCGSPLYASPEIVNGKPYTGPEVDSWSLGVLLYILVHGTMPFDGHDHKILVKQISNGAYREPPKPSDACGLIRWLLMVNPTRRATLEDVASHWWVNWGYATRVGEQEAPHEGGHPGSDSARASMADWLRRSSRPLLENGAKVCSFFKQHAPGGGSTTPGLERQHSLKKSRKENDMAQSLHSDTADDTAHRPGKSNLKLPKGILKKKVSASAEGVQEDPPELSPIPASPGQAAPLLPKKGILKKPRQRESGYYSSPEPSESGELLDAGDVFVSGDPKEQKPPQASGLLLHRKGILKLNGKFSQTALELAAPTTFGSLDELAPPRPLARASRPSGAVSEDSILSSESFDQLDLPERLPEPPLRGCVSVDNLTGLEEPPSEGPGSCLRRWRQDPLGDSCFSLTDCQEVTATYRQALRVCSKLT

CDC2L5 = target: T16, CDC2L5 (Homo sapiens, UniProt Q14004); test: KINOMEScan; assay type: binding; conditions: Concentrations 1 µM
T16 construct: purchased DiscoverX KINOMEscan
Description: (§1) Then we used the DiscoverX’s KINOMEScan platform to further examine CHMFL-KIT-031’s kinome-wide selectivity profile. […] Besides the strong binding to V559D, it also bound strongly to KIT wt, L576P and A829P.

MKK7 = target: T17, MKK7 (Homo sapiens, UniProt O14733); test: KINOMEScan; assay type: binding; set-up: dose or concentration left out as unconfirmed
T17 construct: purchased DiscoverX KINOMEscan
T17 sequence (O14733 whole entry): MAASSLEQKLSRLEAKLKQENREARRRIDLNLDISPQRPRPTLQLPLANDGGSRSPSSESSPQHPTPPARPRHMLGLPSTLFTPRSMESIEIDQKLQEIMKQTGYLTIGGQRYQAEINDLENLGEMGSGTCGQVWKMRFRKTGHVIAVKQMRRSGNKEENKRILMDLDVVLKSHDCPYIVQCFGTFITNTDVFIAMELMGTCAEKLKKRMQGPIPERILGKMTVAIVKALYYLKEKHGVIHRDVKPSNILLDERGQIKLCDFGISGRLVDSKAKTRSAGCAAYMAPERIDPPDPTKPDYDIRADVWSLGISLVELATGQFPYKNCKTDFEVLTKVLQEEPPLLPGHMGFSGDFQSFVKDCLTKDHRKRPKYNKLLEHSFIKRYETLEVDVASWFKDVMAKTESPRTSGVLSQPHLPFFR

KIT N822K = KIT N822K (Homo sapiens, UniProt P10721, N822K); test: KIT auto-phosphorylation in transformed BaF3 cells
KIT N822K, sequence (P10721 26-976 N822K): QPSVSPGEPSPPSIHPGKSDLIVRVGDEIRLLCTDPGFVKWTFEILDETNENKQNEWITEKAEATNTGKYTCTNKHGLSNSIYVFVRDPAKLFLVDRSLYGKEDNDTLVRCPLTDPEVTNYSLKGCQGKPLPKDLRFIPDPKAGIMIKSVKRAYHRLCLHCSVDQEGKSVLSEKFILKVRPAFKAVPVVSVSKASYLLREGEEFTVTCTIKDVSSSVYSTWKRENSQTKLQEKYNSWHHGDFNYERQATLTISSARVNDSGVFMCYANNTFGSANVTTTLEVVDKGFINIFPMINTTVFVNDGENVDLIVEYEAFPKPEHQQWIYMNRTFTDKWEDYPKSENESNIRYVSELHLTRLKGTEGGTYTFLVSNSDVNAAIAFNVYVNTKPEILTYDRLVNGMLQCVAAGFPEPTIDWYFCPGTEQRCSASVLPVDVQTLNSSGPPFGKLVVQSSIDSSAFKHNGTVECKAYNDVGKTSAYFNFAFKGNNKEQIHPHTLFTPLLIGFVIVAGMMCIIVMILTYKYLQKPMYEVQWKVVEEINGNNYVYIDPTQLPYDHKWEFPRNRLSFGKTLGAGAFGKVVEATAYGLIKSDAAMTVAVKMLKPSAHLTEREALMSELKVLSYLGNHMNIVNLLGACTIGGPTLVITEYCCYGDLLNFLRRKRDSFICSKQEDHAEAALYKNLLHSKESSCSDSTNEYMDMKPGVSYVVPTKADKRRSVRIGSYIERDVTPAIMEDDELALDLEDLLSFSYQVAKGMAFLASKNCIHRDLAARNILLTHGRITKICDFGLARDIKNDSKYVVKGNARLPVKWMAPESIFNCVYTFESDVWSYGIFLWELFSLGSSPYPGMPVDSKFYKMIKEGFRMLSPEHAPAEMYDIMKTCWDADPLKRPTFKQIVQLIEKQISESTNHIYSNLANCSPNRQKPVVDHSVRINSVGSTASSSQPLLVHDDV

468 kinases/mutants = test: KINOMEScan kinome-wide selectivity S score; assay type: binding; conditions: 1 μM
Description: as §1

KIT wt = KIT wt (Homo sapiens, UniProt P10721); test: KIT auto-phosphorylation in transformed BaF3 cells; assay type: cell-based; conditions: 2h
KIT wt, sequence (P10721 546-937 limits assumed): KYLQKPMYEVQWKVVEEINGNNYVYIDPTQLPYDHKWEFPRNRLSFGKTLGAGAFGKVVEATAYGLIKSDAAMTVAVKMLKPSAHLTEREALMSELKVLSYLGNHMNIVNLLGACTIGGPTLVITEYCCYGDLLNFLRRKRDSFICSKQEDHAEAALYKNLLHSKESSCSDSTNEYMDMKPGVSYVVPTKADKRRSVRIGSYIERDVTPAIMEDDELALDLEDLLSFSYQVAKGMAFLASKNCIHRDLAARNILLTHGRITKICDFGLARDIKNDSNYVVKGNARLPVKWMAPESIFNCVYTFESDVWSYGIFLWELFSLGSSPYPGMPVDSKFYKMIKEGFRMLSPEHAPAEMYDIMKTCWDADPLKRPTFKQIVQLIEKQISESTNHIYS

JNK1 = target: T18, JNK1 (Homo sapiens, UniProt P45983); test: KINOMEScan; assay type: binding; set-up: dose or concentration left out as unconfirmed
T18 construct: purchased DiscoverX KINOMEscan

KIT D816V = KIT D816V (Homo sapiens, UniProt P10721, D816V); test: KIT auto-phosphorylation in transformed BaF3 cells; conditions: 2h
KIT D816V, sequence (P10721 26-976 D816V): as the sequence (P10721 26-976 N822K) above, with D791V, K797N counted along it

CDK2 = target: T19, CDK2 (Homo sapiens, UniProt P24941); test: KINOMEScan; assay type: binding; set-up: dose or concentration left out as unconfirmed
T19 construct: purchased DiscoverX KINOMEscan

PKMYT1 = target: T20, PKMYT1 (Homo sapiens, UniProt Q99640); test: KINOMEScan; assay type: binding; set-up: dose or concentration left out as unconfirmed
T20 construct: purchased DiscoverX KINOMEscan

[3] = EC50 pY703 auto-phosphorylation
[4] = EC50 pY719 auto-phosphorylation
[5] = EC50 pY823 auto-phosphorylation

SMILES: COc1cc(C(=O)NCC(=O)Nc2ccc3c(/C=C/c4ccccn4)n[nH]c3c2)cc(OC)c1OC [CHMFL-KIT-031]
- KINOMEScan profiling value (JNK3): 99
- KINOMEScan profiling value (EGFR): 100
- EC50 (KIT V559D; COLO 320DM-KIT-V559D, read-out: EC50 P-CKIT Y719): 239 nM
- EC50 (KIT V559D; COLO 320DM-KIT-V559D, read-out: EC50 P-CKIT Y823): 147 nM
- EC50 (KIT V559D; Colo320DM cells overexpressing KIT V559D, range over the sites, read-out: EC50 phosphorylation of KIT V559D mutant (Y703, 719 and Y823 sites)): 176 to 339 nM
- selectivity compared to KIT wt at the corresponding phosphorylation sites (KIT V559D; Colo320DM cells, EC50): over 10 fold
- EC50 (KIT V559D; in cell, KIT V559D, read-out: EC50 pY703): 176 nM
- KINOMEScan profiling value (EGFR(G719S)): 95
- KINOMEScan profiling value (MET(Y1235D)): 100
- KINOMEScan profiling value (p38-alpha): 94
- KINOMEScan profiling value (EGFR(G719C)): 100
- KINOMEScan profiling value (CDK8): 100
- KINOMEScan profiling value (CAMK1B): 83
- KINOMEScan profiling value (MET(M1250T)): 100
- KINOMEScan profiling value (CHEK1): 97
- KINOMEScan profiling value (BTK): 100
- KINOMEScan profiling value (EPHB2): 87
- KINOMEScan profiling value (DCAMKL1): 100
- KINOMEScan profiling value [1]: 100
- phosphorylation of downstream mediators AKT, S6, ERK, p70S6K and STAT3 [2]: potently inhibited
- EC50 (KIT V654A; [3]): 508 nM
- EC50 (KIT V654A; [4]): 2200 nM
- EC50 (KIT V654A; [5]): 4600 nM
- KINOMEScan profiling value (SNARK): 100
- KINOMEScan profiling value (CDC2L5): 97
- KINOMEScan profiling value (MKK7): 100
- EC50 (KIT N822K): > 10000 nM
- EC50 (KIT N822K; read-out: EC50 pY719 auto-phosphorylation, KIT N822K transformed BaF3 cells, 2h): > 10000 nM
- EC50 (KIT N822K; read-out: EC50 pY823 auto-phosphorylation, KIT N822K transformed BaF3 cells, 2h): > 10000 nM
- S score (1) (468 kinases/mutants): 0.01
- EC50 (KIT wt; read-out: EC50 pY703 auto-phosphorylation): 1900 nM
- EC50 (KIT wt; read-out: EC50 pY719 auto-phosphorylation): 8200 nM
- EC50 (KIT wt; read-out: EC50 pY823 auto-phosphorylation): 6900 nM
- KINOMEScan profiling value (JNK1): 94
- EC50 (KIT D816V; [3]): > 10000 nM
- EC50 (KIT D816V; [4]): > 10000 nM
- EC50 (KIT D816V; [5]): 4590 nM
- KINOMEScan profiling value (CDK2): 100
- KINOMEScan profiling value (PKMYT1): 91

From paper PMC5762309 (Oncotarget, 2017)
